Activity calls are given as the source filed them. No cut-off for these calls is given here.
Test system: PC-12
Test: Neurotrophic activity in rat PC-12 cells assessed as neurite outgrowth promoting activity in NGF-induced cells by measuring differentiation rate at 10 […] (reference value: 4.24 +/- 0.03 %)
Format: functional
Parameters: concentration or dose not given beside the values
Details: not given

Row | Structure (SMILES) | Activity
1 | C[C@@H]1CC=C2[C@]13C[C@@]1(O)OC(OC[C@@]2(C)[C@@]1(C)O)[C@@H]3OC(=O)CCc1cccc(F)c1 | 4.97%
2 | C[C@@H]1CC[C@@]2(O)[C@]13C[C@@]1(OC(=O)Cc4cccc(Cl)c4)OC(OC[C@@]2(C)[C@@]1(C)O)[C@@H]3O | 7.13%
3 | C[C@@H]1CC[C@@]2(O)[C@]13C[C@@]1(O)OC(OC[C@@]2(C)[C@@]1(C)O)[C@@H]3O | 5.75%
4 | C[C@@H]1CC[C@@]2(O)[C@]13C[C@@]1(OC(=O)Cc4ccc(Cl)cc4)OC(OC[C@@]2(C)[C@@]1(C)O)[C@@H]3O | 4.9%
5 | C[C@@H]1CC=C2[C@]13C[C@@]1(O)OC(OC[C@@]2(C)[C@@]1(C)O)[C@@H]3O | 5.31%
6 | C[C@@H]1CC[C@@]2(O)[C@]13C[C@@]1(OC(=O)Cc4ccc(Br)cc4)OC(OC[C@@]2(C)[C@@]1(C)O)[C@@H]3O | 6.12%
7 | C[C@@H]1CC=C2[C@]13C[C@@]1(O)OC(OC[C@@]2(C)[C@@]1(C)O)[C@@H]3OC(=O)CCc1ccc(F)cc1 | 5.43%
8 | C[C@@H]1CC[C@@]2(O)[C@]13C[C@@]1(OC(=O)CCc4cccc(Cl)c4)OC(OC[C@@]2(C)[C@@]1(C)O)[C@@H]3O | 4.57%
9 | C[C@@H]1CC[C@@]2(O)[C@]13C[C@@]1(OC(=O)CCc4cccc(Br)c4)OC(OC[C@@]2(C)[C@@]1(C)O)[C@@H]3O | 5.26%
10 | C[C@@H]1CC[C@@]2(O)[C@]13C[C@@]1(OC(=O)Cc4cccc(Br)c4)OC(OC[C@@]2(C)[C@@]1(C)O)[C@@H]3O | 7.35%
11 | C[C@@H]1CC=C2[C@]13C[C@@]1(O)OC(OC[C@@]2(C)[C@@]1(C)O)[C@@H]3OC(=O)CCc1ccc(Cl)cc1 | 6.05%
12 | C[C@@H]1CC[C@@]2(O)[C@]13C[C@@]1(OC(=O)CCc4ccc(F)cc4)OC(OC[C@@]2(C)[C@@]1(C)O)[C@@H]3O | 10.41%
13 | C[C@@H]1CC=C2[C@]13C[C@@]1(O)OC(OC[C@@]2(C)[C@@]1(C)O)[C@@H]3OC(=O)CCc1ccccc1 | 5.81%
14 | C[C@@H]1CC[C@@]2(O)[C@]13C[C@@]1(OC(=O)CCc4ccc(Br)cc4)OC(OC[C@@]2(C)[C@@]1(C)O)[C@@H]3O | 6.15%
15 | C[C@@H]1CC=C2[C@]13C[C@@]1(O)OC(OC[C@@]2(C)[C@@]1(C)O)[C@@H]3OC(=O)CCc1cccc(Br)c1 | 5.26%
16 | C/C=C/C=C/C(=O)O[C@]12C[C@]34[C@H](C)CC[C@]3(O)[C@@](C)(COC(O1)[C@@H]4O)[C@@]2(C)O | 11.74%
17 | C[C@@H]1CC[C@@]2(O)[C@]13C[C@@]1(OC(=O)Cc4ccc(F)cc4)OC(OC[C@@]2(C)[C@@]1(C)O)[C@@H]3O | 5.74%
18 | C[C@@H]1CC[C@@]2(O)[C@]13C[C@@]1(OC(=O)Cc4cccc(F)c4)OC(OC[C@@]2(C)[C@@]1(C)O)[C@@H]3O | 6.52%
19 | C[C@@H]1CC[C@@]2(O)[C@]13C[C@@]1(OC(=O)CCc4ccc(Cl)cc4)OC(OC[C@@]2(C)[C@@]1(C)O)[C@@H]3O | 5.87%
20 | C/C=C/C=C/C(=O)O[C@H]1C2OC[C@]3(C)C4=CC[C@@H](C)[C@@]41C[C@@](O)(O2)[C@]3(C)O | 11.11%
21 | C[C@@H]1CC[C@@]2(O)[C@]13C[C@@]1(OC(=O)CCC(=O)c4ccccc4)OC(OC[C@@]2(C)[C@@]1(C)O)[C@@H]3O | 5.69%
22 | C[C@@H]1CC[C@@]2(O)[C@]13C[C@@]1(OC(=O)CCc4cccc(F)c4)OC(OC[C@@]2(C)[C@@]1(C)O)[C@@H]3O | 6.35%
23 | C[C@@H]1CC=C2[C@]13C[C@@]1(O)OC(OC[C@@]2(C)[C@@]1(C)O)[C@@H]3OC(=O)CCc1cccc(Cl)c1 | 5.6%
24 | C[C@@H]1CC=C2[C@]13C[C@@]1(O)OC(OC[C@@]2(C)[C@@]1(C)O)[C@@H]3OC(=O)CCc1ccc(Br)cc1 | 6.03%
25 | C[C@@H]1CC[C@@]2(O)[C@]13C[C@@]1(OC(=O)/C=C/c4ccccc4)OC(OC[C@@]2(C)[C@@]1(C)O)[C@@H]3O | 5.03%
26 | C[C@@H]1CC[C@@]2(O)[C@]13C[C@@]1(OC(=O)Cc4ccc5ccccc5c4)OC(OC[C@@]2(C)[C@@]1(C)O)[C@@H]3O | 4.76%
27 | C[C@@H]1CC=C2[C@]13C[C@@]1(O)OC(OC[C@@]2(C)[C@@]1(C)O)[C@@H]3OC(=O)CCC(=O)c1ccccc1 | 7.21%

Test system: PC-12
Test: Induction of neurite outgrowth in NGF-induced rat PC-12 cells assessed as increase in average neurite length at 10 uM in presence of by methylene blue staining based light microscopy
Format: functional, cell-based
Details: not given

Row | Structure (SMILES) | Activity
28 | C[C@@H]1CC[C@@]2(O)[C@]13C[C@@]1(OC(=O)CCc4ccc(F)cc4)OC(OC[C@@]2(C)[C@@]1(C)O)[C@@H]3O | Active
29 | C/C=C/C=C/C(=O)O[C@]12C[C@]34[C@H](C)CC[C@]3(O)[C@@](C)(COC(O1)[C@@H]4O)[C@@]2(C)O | Active
30 | C/C=C/C=C/C(=O)O[C@H]1C2OC[C@]3(C)C4=CC[C@@H](C)[C@@]41C[C@@](O)(O2)[C@]3(C)O | Active

Test system: PC-12
Test: Neurotrophic activity in rat PC-12 cells assessed as neurite outgrowth promoting activity in NGF-induced cells by measuring differentiation rate at 10 […] relative to merrillianone
Format: functional
Details: not given

Row | Structure (SMILES) | fold change (FC)
31 | C[C@@H]1CC[C@@]2(O)[C@]13C[C@@]1(OC(=O)CCc4ccc(F)cc4)OC(OC[C@@]2(C)[C@@]1(C)O)[C@@H]3O | 2
32 | C/C=C/C=C/C(=O)O[C@]12C[C@]34[C@H](C)CC[C@]3(O)[C@@](C)(COC(O1)[C@@H]4O)[C@@]2(C)O | 2
33 | C/C=C/C=C/C(=O)O[C@H]1C2OC[C@]3(C)C4=CC[C@@H](C)[C@@]41C[C@@](O)(O2)[C@]3(C)O | 2

Test system: PC-12
Test: Neurotrophic activity in rat PC-12 cells assessed as neurite outgrowth promoting activity in NGF-induced cells by measuring differentiation rate at 10 […] relative to cycloparviforalone
Format: functional
Details: not given

Row | Structure (SMILES) | fold change (FC)
34 | C[C@@H]1CC[C@@]2(O)[C@]13C[C@@]1(OC(=O)CCc4ccc(F)cc4)OC(OC[C@@]2(C)[C@@]1(C)O)[C@@H]3O | 2
35 | C/C=C/C=C/C(=O)O[C@]12C[C@]34[C@H](C)CC[C@]3(O)[C@@](C)(COC(O1)[C@@H]4O)[C@@]2(C)O | 2
36 | C/C=C/C=C/C(=O)O[C@H]1C2OC[C@]3(C)C4=CC[C@@H](C)[C@@]41C[C@@](O)(O2)[C@]3(C)O | 2

Test system: not listed separately
Test: Hydrolytic stability in phosphate buffer with pH 3.5 assessed as retention time measured after 2 hrs by HPLC analysis
Format: physicochemical
Details: pH 3.5, 2 h

Row | Retention_time | Structure (SMILES)
37 | 15.77 min | C[C@@H]1CC[C@@]2(O)[C@]13C[C@@]1(OC(=O)Cc4ccc5ccccc5c4)OC(OC[C@@]2(C)[C@@]1(C)O)[C@@H]3O

Test system: not listed separately
Test: Hydrolytic stability in phosphate buffer with pH 3.5 assessed as retention time measured after 4 hrs by HPLC analysis
Format: physicochemical
Details: pH 3.5, 4 h

Row | Retention_time | Structure (SMILES)
38 | 15.97 min | C[C@@H]1CC[C@@]2(O)[C@]13C[C@@]1(OC(=O)Cc4ccc5ccccc5c4)OC(OC[C@@]2(C)[C@@]1(C)O)[C@@H]3O

Test system: not listed separately
Test: Hydrolytic stability in phosphate buffer with pH 3.5 assessed as retention time measured after 6 hrs by HPLC analysis
Format: physicochemical
Details: pH 3.5, 6 h

Row | Retention_time | Structure (SMILES)
39 | 16.154 min | C[C@@H]1CC[C@@]2(O)[C@]13C[C@@]1(OC(=O)Cc4ccc5ccccc5c4)OC(OC[C@@]2(C)[C@@]1(C)O)[C@@H]3O
